#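 Step 1: Grow cells in 96-well plates. Step 2: Expose to compound for 48 hours at 5 concentrations. Step 3: Interpolate endpoints linearly; if unreached, use highest concentration. GI50 marks 50% less growth.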 Active and inactive are the calls of the source. Cut-off read from the data, not from the text of the source: active = GI50 up to about 1.1 µM and inactive = higher.
# Tests used:
# Assay in all cases: NCI anticancer screen, dose series, 48 h
# SN12C = test system: SN12C
# SK-MEL-2 = test system: SK-MEL-2
# EKVX = test system: EKVX
# SK-MEL-28 = test system: SK-MEL-28
# HT-29 = test system: HT-29
# SNB-75 = test system: SNB-75
# M14 = test system: M14
# UACC-257 = test system: UACC-257
# MDA-N = test system: MDA-N
# OVCAR-3 = test system: OVCAR-3
# ACHN = test system: ACHN
# MOLT-4 = test system: MOLT-4
# PC-3 = test system: PC-3
# HCT-116 = test system: HCT-116
# NCI-H522 = test system: NCI-H522
# 786-0 = test system: 786-0
# HOP-92 = test system: HOP-92
# CAKI-1 = test system: CAKI-1
# A549 = test system: A549
# COLO 205 = test system: COLO 205
# CCRF-CEM = test system: CCRF-CEM
# UACC-62 = test system: UACC-62
# Hs-578T = test system: Hs-578T
# OVCAR-5 = test system: OVCAR-5
# SK-OV-3 = test system: SK-OV-3
# HCT-15 = test system: HCT-15
# SF-295 = test system: SF-295
# NCI/ADR-RES = test system: NCI/ADR-RES
# SK-MEL-5 = test system: SK-MEL-5
# RPMI-8226 = test system: RPMI-8226
# SW-620 = test system: SW-620
# NCI-H226 = test system: NCI-H226
# MDA-MB-435 = test system: MDA-MB-435
# DU-145 = test system: DU-145
# UO-31 = test system: UO-31
# U-251 = test system: U-251
# K562 = test system: K562
# IGROV-1 = test system: IGROV-1
# SF-268 = test system: SF-268
# Malme-3M = test system: Malme-3M
# MDA-MB-231 = test system: MDA-MB-231
# A498 = test system: A498
# MCF7 = test system: MCF7
# BT-549 = test system: BT-549
# KM12 = test system: KM12
# SNB-19 = test system: SNB-19
# SR = test system: SR
# HOP-62 = test system: HOP-62
# OVCAR-4 = test system: OVCAR-4
# OVCAR-8 = test system: OVCAR-8
# HCC 2998 = test system: HCC 2998
# TK-10 = test system: TK-10
# LOX IMVI = test system: LOX IMVI
# SF-539 = test system: SF-539
# NCI-H23 = test system: NCI-H23
# RXF 393 = test system: RXF 393
# T47D = test system: T47D
# NCI-H460 = test system: NCI-H460
compound,measurement,setting,value
Cn1c2ccccc2c2c3c(=O)[nH][nH]c(=O)c3c3c4ccccc4n(C)c3c21,GI50,SN12C,> 100 µM (inactive)
same,GI50,SK-MEL-2,> 100 µM (inactive)
same,GI50,EKVX,> 100 µM (inactive)
same,GI50,SK-MEL-28,> 100 µM (inactive)
same,GI50,HT-29,> 100 µM (inactive)
same,GI50,SNB-75,> 100 µM (inactive)
same,GI50,M14,> 84.5 µM (inactive)
same,GI50,UACC-257,> 100 µM (inactive)
same,GI50,MDA-N,> 100 µM (inactive)
same,GI50,OVCAR-3,> 100 µM (inactive)
same,GI50,ACHN,> 100 µM (inactive)
same,GI50,MOLT-4,> 100 µM (inactive)
same,GI50,PC-3,> 100 µM (inactive)
same,GI50,HCT-116,78.3 µM (inactive)
same,GI50,NCI-H522,1.09 µM (active)
same,GI50,786-0,> 100 µM (inactive)
same,GI50,HOP-92,> 100 µM (inactive)
same,GI50,CAKI-1,> 100 µM (inactive)
same,GI50,A549,> 100 µM (inactive)
same,GI50,COLO 205,> 89.1 µM (inactive)
same,GI50,CCRF-CEM,0.655 µM (active)
same,GI50,UACC-62,> 100 µM (inactive)
same,GI50,Hs-578T,> 100 µM (inactive)
same,GI50,OVCAR-5,> 100 µM (inactive)
same,GI50,SK-OV-3,> 100 µM (inactive)
same,GI50,HCT-15,99.1 µM
same,GI50,SF-295,> 100 µM (inactive)
same,GI50,NCI/ADR-RES,> 58.2 µM (inactive)
same,GI50,SK-MEL-5,> 100 µM (inactive)
same,GI50,RPMI-8226,13.6 µM (inactive)
same,GI50,SW-620,> 100 µM (inactive)
same,GI50,NCI-H226,> 100 µM (inactive)
same,GI50,MDA-MB-435,> 100 µM (inactive)
same,GI50,DU-145,> 100 µM (inactive)
same,GI50,UO-31,> 100 µM (inactive)
same,GI50,U-251,> 100 µM (inactive)
same,GI50,K562,58.5 µM (inactive)
same,GI50,IGROV-1,> 100 µM (inactive)
same,GI50,SF-268,> 100 µM (inactive)
same,GI50,Malme-3M,> 100 µM (inactive)
same,GI50,MDA-MB-231,> 100 µM (inactive)
same,GI50,A498,> 100 µM (inactive)
same,GI50,MCF7,0.133 µM (active)
same,GI50,BT-549,> 100 µM (inactive)
same,GI50,KM12,30.1 µM (inactive)
same,GI50,SNB-19,> 100 µM (inactive)
same,GI50,SR,< 0.01 µM (active)
same,GI50,HOP-62,> 96.6 µM (inactive)
same,GI50,OVCAR-4,> 64.3 µM (inactive)
same,GI50,OVCAR-8,> 100 µM (inactive)
same,GI50,HCC 2998,> 100 µM (inactive)
same,GI50,TK-10,> 100 µM (inactive)
same,GI50,LOX IMVI,> 100 µM (inactive)
same,GI50,SF-539,> 100 µM (inactive)
same,GI50,NCI-H23,12.5 µM (inactive)
same,GI50,RXF 393,> 100 µM (inactive)
same,GI50,T47D,0.284 µM (active)
same,GI50,NCI-H460,16.9 µM (inactive)

# Reference: ChEMBL document CHEMBL1201862, “PubChem BioAssay data set” (2004)
